{
  "source": "patent US11051777B2",
  "about": "“Imaging neurological disease” (GE Healthcare Limited, priority 2013, dated 2021)",
  "type_in_all_cases": "in vivo",
  "key": {"dopamine transporter [1]": {"biological_target": "T1, dopamine transporter (Homo sapiens, UniProt Q01959)", "T1 construct": "from tissue; host or cells: striatum of living normal human subjects (in vivo SPECT imaging, ENCDAT and PPMI databases)", "T1 sequence (Q01959 whole entry)": "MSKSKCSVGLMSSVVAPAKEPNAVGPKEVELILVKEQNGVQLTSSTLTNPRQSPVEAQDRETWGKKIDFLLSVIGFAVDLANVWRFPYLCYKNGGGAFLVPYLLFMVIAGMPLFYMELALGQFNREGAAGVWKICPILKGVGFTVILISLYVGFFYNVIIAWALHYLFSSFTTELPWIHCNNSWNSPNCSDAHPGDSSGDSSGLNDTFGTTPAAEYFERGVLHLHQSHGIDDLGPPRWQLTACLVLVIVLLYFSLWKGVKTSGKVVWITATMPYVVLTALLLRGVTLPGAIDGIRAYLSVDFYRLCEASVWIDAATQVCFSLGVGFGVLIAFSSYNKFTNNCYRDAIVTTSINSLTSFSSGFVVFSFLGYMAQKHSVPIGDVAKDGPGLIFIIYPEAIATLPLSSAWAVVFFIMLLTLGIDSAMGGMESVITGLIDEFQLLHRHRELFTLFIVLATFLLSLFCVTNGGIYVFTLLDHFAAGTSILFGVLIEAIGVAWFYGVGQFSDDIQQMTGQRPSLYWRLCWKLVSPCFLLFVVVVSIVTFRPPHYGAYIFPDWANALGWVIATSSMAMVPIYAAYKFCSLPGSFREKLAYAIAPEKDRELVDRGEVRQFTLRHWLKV", "assay": "Striatal binding ratio (SBR) from DaTSCAN images of normal subjects, ENCDAT database", "settings": "mean ±1 SD", "method": "The European Association of Nuclear Medicine RESEARCH4LIFE© initiative (“EARL”) has been compiling a database of DaTSCAN images of normal human subjects since 2007 (see http://earl.eanm.org/cms/website.php?id=/en/projects/enc-dat.htm). The ENCDAT database includes 150 normal subjects—with data from a range of camera types. SBR was calculated for the 150 normal subjects (Group A):\n[formula] • where: • SBR=specific binding ratio or striatum binding ratio, • ROI=region of interest. Brain imaging data for n=37 normal subjects acquired on GE cameras in the ENCDAT database was used for the calculation of SBR (Group B). SBR for an illustrative patient from the ENCDAT database is also shown: […]"}, "dopamine transporter [2]": {"biological_target": "T1, dopamine transporter", "assay": "Striatum right:left ratio from DaTSCAN SBR data of normal subjects, ENCDAT database", "from_the_text": "Using the method of the present invention, the data from Example 1 was used to calculate a striatum right:left ratio:\nTable 3 below uses SBR data for normal subjects from the ENC DAT database. Three subjects from each of five different sites are shown, but the overall average is based on data from 11 sites: […]"}, "dopamine transporter [3]": {"biological_target": "T1, dopamine transporter", "assay": "Normal database (PPMI, ENCDAT) DaTSCAN scans, SBR method averaged per decade of life", "settings": "normal subjects", "method": "Two databases of scans of DaTSCAN™ (GE Healthcare Ltd) normal human subjects were evaluated using: • (i) the SBR method of the prior art (see Example 1), with the occipital cortex as the reference region; • (ii) the L/R ratio method of the present invention. The PPMI database was of 122 subjects (age range 31-84; 62% male 38% female). The ENCDAT database was of 122 subjects (age range 20-82; 52% male 48% female). The data from all subjects in each decade of life (20 s, 30 s etc) were averaged."}, "dopamine transporter [4]": {"biological_target": "T1, dopamine transporter", "assay": "Patient classification from Datscan clinical trial data using SBR only, versus clinical diagnosis", "method": "The data from two GE Healthcare Ltd clinical trials of Datscan™: • (i) comparing PD and ET; • (ii) clinically uncertain PD; 104 patients in total were analysed using SBR calculation only. Each determination was compared with the patient determination based on clinical symptoms.\nThis gives a sensitivity of 71%, specificity of 96% and accuracy of 82% for the SBR technique. The clinical diagnosis was assumed to be the ‘true’ diagnosis, and sensitivity and specificity can then be calculated. Sensitivity=100×True Positives/(True Positives+False Negatives)=100×42/59=71%. Specificity=100×True Negatives/(True Negatives+False Positives)=100×43/45=96%. Accuracy=100×(True Positives+True Negatives)/Population=100×(42+43)/104=82%."}, "dopamine transporter [5]": {"biological_target": "T1, dopamine transporter", "assay": "Patient classification from Datscan clinical trial data using SBR plus L/R asymmetry, versus clinical diagnosis", "method": "The 104 patient data set from Example 4 was analysed using SBR together with the L/R asymmetry of the present invention."}, "[6]": {"settings": "Normal A: 150 normal subjects, range of camera types"}, "[7]": {"settings": "Normal B: n=37 normal subjects, GE cameras"}, "[8]": {"settings": "WHOLE mean, overall average of 11 sites"}, "[9]": {"settings": "individual normal subjects, three per site, sites 1-5"}, "[10]": {"settings": "SBR technique, clinical diagnosis as truth"}, "[11]": {"settings": "104 patients, SBR with L/R asymmetry"}, "[12]": {"settings": "SBR plus asymmetry, clinical diagnosis as truth"}},
  "note": "“And” between values parts separate entries of the source, which are not always exact repeats. Equal entries are not always repeated.",
  "data": [
    {"smiles": "COC(=O)[C@H]1[C@@H](c2ccc([123I])cc2)C[C@@H]2CC[C@H]1N2CCCF", "note": "[DaTSCAN, ^123I-ioflupane]", "values": [
      {"measurement": "SBR Striatum left", "setting": "dopamine transporter [1]; [6]", "value": "2.88 ± 0.69 and 2.88 +/− 0.69"},
      {"measurement": "SBR Striatum right", "setting": "dopamine transporter [1]; [6]", "value": "2.88 ± 0.65 and 2.88 +/− 0.65"},
      {"measurement": "SBR Striatum left", "setting": "dopamine transporter [1]; [7]", "value": "2.42 +/− 0.63"},
      {"measurement": "SBR Striatum right", "setting": "dopamine transporter [1]; [7]", "value": "2.41 +/− 0.63"},
      {"measurement": "SBR left, normal range", "setting": "dopamine transporter [2]; Normal range (+/-1 SD)", "value": "1.79-3.05"},
      {"measurement": "SBR right, normal range", "setting": "dopamine transporter [2]; Normal range (+/-1 SD)", "value": "1.78-3.04"},
      {"measurement": "Striatum Right:left, normal range", "setting": "dopamine transporter [2]; Normal range (+/-1 SD)", "value": "0.96-1.04"},
      {"measurement": "Striatum Right:left", "setting": "dopamine transporter [2]; Normal subjects, mean +/-1 SD", "value": "1.00 +/− 0.04"},
      {"measurement": "Anterior putamen R:L ratio", "setting": "dopamine transporter [2]; [8]", "value": 1.00},
      {"measurement": "Caudate R:L ratio", "setting": "dopamine transporter [2]; [8]", "value": 0.99},
      {"measurement": "Posterior Putamen R:L ratio", "setting": "dopamine transporter [2]; [8]", "value": 1.01},
      {"measurement": "Putamen R:L ratio", "setting": "dopamine transporter [2]; [8]", "value": 1.01},
      {"measurement": "SBR Striatum L", "setting": "dopamine transporter [2]; [8]", "value": 2.88},
      {"measurement": "SBR Striatum R", "setting": "dopamine transporter [2]; [8]", "value": 2.88},
      {"measurement": "Striatum R:L ratio", "setting": "dopamine transporter [2]; [8]", "value": 1.00},
      {"measurement": "Anterior putamen R:L ratio", "setting": "dopamine transporter [2]; [9]", "value": "1.03 (2×) and 1.00 (4×) and 0.91 and 0.98 and 0.97 and 1.01 (3×) and 1.06 and 0.99 and 0.96"},
      {"measurement": "Caudate R:L ratio", "setting": "dopamine transporter [2]; [9]", "value": "0.98 and 1.02 and 0.97 and 1.05 (3×) and 0.89 and 1.03 (3×) and 1.15 and 1.11 and 1.07 and 0.94 and 1.01"},
      {"measurement": "Posterior Putamen R:L ratio", "setting": "dopamine transporter [2]; [9]", "value": "1.03 and 1.08 and 1.18 (2×) and 1.00 and 1.05 and 0.99 and 1.20 and 1.07 (3×) and 1.02 and 1.11 (2×) and 0.93"},
      {"measurement": "Putamen R:L ratio", "setting": "dopamine transporter [2]; [9]", "value": "1.03 (2×) and 1.02 and 1.04 (2×) and 1.05 (2×) and 0.93 and 1.00 (3×) and 0.98 and 1.06 and 1.07 and 0.99"},
      {"measurement": "SBR Striatum L", "setting": "dopamine transporter [2]; [9]", "value": "3.25 and 2.58 and 3.11 and 2.60 and 2.94 and 1.88 and 4.03 and 2.33 and 3.28 and 2.62 and 2.37 and 2.50 and 4.79 and 3.22 and 3.09"},
      {"measurement": "SBR Striatum R", "setting": "dopamine transporter [2]; [9]", "value": "3.29 and 2.65 and 3.16 and 2.74 and 2.69 and 1.91 and 4.06 and 2.56 and 3.57 and 2.70 and 2.37 and 2.62 and 4.93 and 3.23 and 3.15"},
      {"measurement": "Striatum R:L ratio", "setting": "dopamine transporter [2]; [9]", "value": "1.01 (2×) and 1.03 (3×) and 1.02 (3×) and 1.05 (2×) and 0.92 and 1.10 and 1.09 and 1.00 (2×)"},
      {"measurement": "SBR", "setting": "dopamine transporter [3]; eighties age group", "value": "about 2.2"},
      {"measurement": "SBR", "setting": "dopamine transporter [3]; thirties age group", "value": "about 3.2"},
      {"measurement": "number of subjects: SBR Abnormal, Clinical Abnormal", "setting": "dopamine transporter [4]; 104 patients, SBR only", "value": 42},
      {"measurement": "number of subjects: SBR Abnormal, Clinical Normal", "setting": "dopamine transporter [4]; 104 patients, SBR only", "value": 2},
      {"measurement": "number of subjects: SBR Normal, Clinical Abnormal", "setting": "dopamine transporter [4]; 104 patients, SBR only", "value": 17},
      {"measurement": "number of subjects: SBR Normal, Clinical Normal", "setting": "dopamine transporter [4]; 104 patients, SBR only", "value": 43},
      {"measurement": "accuracy", "setting": "dopamine transporter [4]; [10]", "value": 82, "unit": "%"},
      {"measurement": "sensitivity", "setting": "dopamine transporter [4]; [10]", "value": 71, "unit": "%"},
      {"measurement": "specificity", "setting": "dopamine transporter [4]; [10]", "value": 96, "unit": "%"},
      {"measurement": "number of subjects: SBR + Asymmetry Abnormal, Clinical Abnormal", "setting": "dopamine transporter [5]; [11]", "value": 54},
      {"measurement": "number of subjects: SBR + Asymmetry Abnormal, Clinical Normal", "setting": "dopamine transporter [5]; [11]", "value": 11},
      {"measurement": "number of subjects: SBR + Asymmetry Normal, Clinical Abnormal", "setting": "dopamine transporter [5]; [11]", "value": 5},
      {"measurement": "number of subjects: SBR + Asymmetry Normal, Clinical Normal", "setting": "dopamine transporter [5]; [11]", "value": 34},
      {"measurement": "accuracy", "setting": "dopamine transporter [5]; [12]", "value": 85, "unit": "%"},
      {"measurement": "sensitivity", "setting": "dopamine transporter [5]; [12]", "value": 92, "unit": "%"},
      {"measurement": "specificity", "setting": "dopamine transporter [5]; [12]", "value": 76, "unit": "%"}
    ]}
  ]
}
